Experimental data as given in patent US20240132431A1, “METHOD FOR ALKYLATING ACIDIC FUNCTIONAL GROUP” (Chugai Seiyaku Kabushiki Kaisha, priority 2021, published 2024).

Molecular target: T1, Bcl-2 protein (Recombinant Human Bcl-2 Protein) (Homo sapiens, UniProt P10415)
T1 construct: purchased Novus NBP2-34889
Test: Binding evaluation of mixture library compounds to Bcl-2 using AS-MS (affinity selection mass spectrometry)
Conditions: AS-MS, mixture library, Bcl-2, ASMS Ratio(%)=(A−C)/B×100; for ASMS ratio (%) n = 1: replicate n = 1; for ASMS ratio (%) n = 2: replicate n = 2
Procedure, shortened: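 Pooled library of ~1200 compounds ([…] each, final) incubated with recombinant human Bcl-2 (20 μM final) in Tris-HCl pH 7.4, NaCl, Tween-20, DTT buffer, dark, 23° C., 1 h. Bound fraction recovered by SEC spin column, organic extraction, reversed-phase LC/MS. ASMS Ratio (%) = (A−C)/B×100 versus protein-free standard and SEC blank.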

T1 sequence (P10415 whole entry): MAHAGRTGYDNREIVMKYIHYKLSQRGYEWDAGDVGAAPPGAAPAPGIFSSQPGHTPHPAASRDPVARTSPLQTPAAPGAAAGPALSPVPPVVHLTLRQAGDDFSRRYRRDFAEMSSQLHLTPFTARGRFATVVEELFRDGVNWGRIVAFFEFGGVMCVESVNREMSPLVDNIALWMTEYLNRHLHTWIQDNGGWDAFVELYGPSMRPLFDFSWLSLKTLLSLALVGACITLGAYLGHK

Row | Compound | ASMS ratio (%) n = 1 [%] | ASMS ratio (%) n = 2 [%]
1 | CCOc1cccc(-c2ccccc2CCC(=O)N2CCN(c3ccc(C(=O)NS(=O)(=O)c4ccc(NCCSc5ccccc5)c([N+](=O)[O-])c4)cc3)CC2)c1 [B2Q033-01, 4-[4-[3-[2-(3-Ethoxyphenyl)phenyl]propanoyl]piperazin-1-yl]-N-[3-nitro-4-(2-phenylsulfanylethylamino)phenyl]sulfonylbenzamide] | 4.2 | −2.3
2 | CCOc1cncc(-c2ccccc2CCC(=O)N2CCN(c3ccc(C(=O)NS(=O)(=O)c4ccc(NCCSc5ccccc5)c([N+](=O)[O-])c4)cc3)CC2)c1 [B2Q034-01, 4-[4-[3-[2-(5-Ethoxypyridin-3-yl)phenyl]propanoyl]piperazin-1-yl]-N-[3-nitro-4-(2-phenylsulfanylethylamino)phenyl]sulfonylbenzamide] | 0.0 | 0.0
3 | CCOc1cccc(-c2ccc(C(=O)N3CCN(c4ccc(C(=O)NS(=O)(=O)c5ccc(NCCSc6ccccc6)c([N+](=O)[O-])c5)cc4)CC3)c3ccccc23)c1 [B2Q035-01, 4-[4-[4-(3-Ethoxyphenyl)naphthalene-1-carbonyl]piperazin-1-yl]-N-[3-nitro-4-(2-phenylsulfanylethylamino)phenyl]sulfonylbenzamide] | 9.9 | −13.7
4 | CCOc1cncc(-c2ccc(C(=O)N3CCN(c4ccc(C(=O)NS(=O)(=O)c5ccc(NCCSc6ccccc6)c([N+](=O)[O-])c5)cc4)CC3)c3ccccc23)c1 [B2Q036-01, 4-[4-[4-(5-Ethoxypyridin-3-yl)naphthalene-1-carbonyl]piperazin-1-yl]-N-[3-nitro-4-(2-phenylsulfanylethylamino)phenyl]sulfonylbenzamide] | 0.0 | −6.0
5 | CCOc1cccc(-c2cc(C(=O)N3CCN(c4ccc(C(=O)NS(=O)(=O)c5ccc(NCCSc6ccccc6)c([N+](=O)[O-])c5)cc4)CC3)cc(C(C)(C)C)c2)c1 [B2Q037-01, 4-[4-[3-tert-Butyl-5-(3-ethoxyphenyl)benzoyl]piperazin-1-yl]-N-[3-nitro-4-(2-phenylsulfanylethylamino)phenyl]sulfonylbenzamide] | 10.9 | −1.5
6 | CCOc1cncc(-c2cc(C(=O)N3CCN(c4ccc(C(=O)NS(=O)(=O)c5ccc(NCCSc6ccccc6)c([N+](=O)[O-])c5)cc4)CC3)cc(C(C)(C)C)c2)c1 [B2Q038-01, 4-[4-[3-tert-Butyl-5-(5-ethoxypyridin-3-yl)benzoyl]piperazin-1-yl]-N-[3-nitro-4-(2-phenylsulfanylethylamino)phenyl]sulfonylbenzamide] | 3.3 | 0.4
7 | CCOc1cccc(-c2cc(C(=O)N3CCN(c4ccc(C(=O)NS(=O)(=O)c5ccc(NCCSc6ccccc6)c([N+](=O)[O-])c5)cc4)CC3)cc(C(F)(F)F)c2)c1 [B2Q039-01, 4-[4-[3-(3-Ethoxyphenyl)-5-(trifluoromethyl)benzoyl]piperazin-1-yl]-N-[3-nitro-4-(2-phenylsulfanylethylamino)phenyl]sulfonylbenzamide] | 7.2 | 4.6
8 | CCOc1cccc(C#Cc2cc(C(=O)N3CCN(c4ccc(C(=O)NS(=O)(=O)c5ccc(NCCSc6ccccc6)c([N+](=O)[O-])c5)cc4)CC3)cc(C(F)(F)F)c2)c1 [B2Q041-01, 4-[4-[3-[2-(3-Ethoxyphenyl)ethynyl]-5-(trifluoromethyl)benzoyl]piperazin-1-yl]-N-[3-nitro-4-(2-phenylsulfanylethylamino)phenyl]sulfonylbenzamide] | 2.6 | 0.2
9 | CCOc1cncc(C#Cc2cc(C(=O)N3CCN(c4ccc(C(=O)NS(=O)(=O)c5ccc(NCCSc6ccccc6)c([N+](=O)[O-])c5)cc4)CC3)cc(C(F)(F)F)c2)c1 [B2Q042-01, 4-[4-[3-[2-(5-Ethoxypyridin-3-yl)ethynyl]-5-(trifluoromethyl)benzoyl]piperazin-1-yl]-N-[3-nitro-4-(2-phenylsulfanylethylamino)phenyl]sulfonylbenzamide] | 26.1 | 19.5
10 | CCOc1cccc(-c2cnn(-c3cc(C(=O)N4CCN(c5ccc(C(=O)NS(=O)(=O)c6ccc(NCCSc7ccccc7)c([N+](=O)[O-])c6)cc5)CC4)cc(C(F)(F)F)c3)c2)c1 [B2Q043-01, 4-[4-[3-[4-(3-Ethoxyphenyl)pyrazol-1-yl]-5-(trifluoromethyl)benzoyl]piperazin-1-yl]-N-[3-nitro-4-(2-phenylsulfanylethylamino)phenyl]sulfonylbenzamide] | 12.4 | −13.4
11 | CCOc1cncc(-c2cnn(-c3cc(C(=O)N4CCN(c5ccc(C(=O)NS(=O)(=O)c6ccc(NCCSc7ccccc7)c([N+](=O)[O-])c6)cc5)CC4)cc(C(F)(F)F)c3)c2)c1 [B2Q044-01, 4-[4-[3-[4-(5-Ethoxypyridin-3-yl)pyrazol-1-yl]-5-(trifluoromethyl)benzoyl]piperazin-1-yl]-N-[3-nitro-4-(2-phenylsulfanylethylamino)phenyl]sulfonylbenzamide] | 11.0 | −1.3
12 | CCOc1cccc(-c2ccc(CN3CCN(c4ccc(C(=O)NS(=O)(=O)c5ccc(NCCSc6ccccc6)c([N+](=O)[O-])c5)cc4)CC3)c(CC)c2)c1 [B2Q049-01, 4-[4-[[4-(3-Ethoxyphenyl)-2-ethylphenyl]methyl]piperazin-1-yl]-N-[3-nitro-4-(2-phenylsulfanylethylamino)phenyl]sulfonylbenzamide] | −2.4 | −4.8
13 | CCOc1cncc(-c2ccc(CN3CCN(c4ccc(C(=O)NS(=O)(=O)c5ccc(NCCSc6ccccc6)c([N+](=O)[O-])c5)cc4)CC3)c(CC)c2)c1 [B2Q050-01, 4-[4-[[4-(5-Ethoxypyridin-3-yl)-2-ethylphenyl]methyl]piperazin-1-yl]-N-[3-nitro-4-(2-phenylsulfanylethylamino)phenyl]sulfonylbenzamide] | 0.0 | 0.0
14 | CCOc1cccc(-c2ccc(CN3CCN(c4ccc(C(=O)NS(=O)(=O)c5ccc(NCCSc6ccccc6)c([N+](=O)[O-])c5)cc4)CC3)cc2F)c1 [B2Q051-01, 4-[4-[[4-(3-Ethoxyphenyl)-3-fluorophenyl]methyl]piperazin-1-yl]-N-[3-nitro-4-(2-phenylsulfanylethylamino)phenyl]sulfonylbenzamide] | 22.6 | 2.1
15 | CCOc1cncc(-c2ccc(CN3CCN(c4ccc(C(=O)NS(=O)(=O)c5ccc(NCCSc6ccccc6)c([N+](=O)[O-])c5)cc4)CC3)cc2F)c1 [B2Q052-01, 4-[4-[[4-(5-Ethoxypyridin-3-yl)-3-fluorophenyl]methyl]piperazin-1-yl]-N-[3-nitro-4-(2-phenylsulfanylethylamino)phenyl]sulfonylbenzamide] | 22.8 | 13.9
16 | CCOc1cccc(-c2cc(CN3CCN(c4ccc(C(=O)NS(=O)(=O)c5ccc(NCCSc6ccccc6)c([N+](=O)[O-])c5)cc4)CC3)cc(OCC)c2)c1 [B2Q055-01, 4-[4-[[3-Ethoxy-5-(3-ethoxyphenyl)phenyl]methyl]piperazin-1-yl]-N-[3-nitro-4-(2-phenylsulfanylethylamino)phenyl]sulfonylbenzamide] | 9.0 | −8.3
17 | CCOc1cncc(-c2cc(CN3CCN(c4ccc(C(=O)NS(=O)(=O)c5ccc(NCCSc6ccccc6)c([N+](=O)[O-])c5)cc4)CC3)cc(OCC)c2)c1 [B2Q056-01, 4-[4-[[3-Ethoxy-5-(5-ethoxypyridin-3-yl)phenyl]methyl]piperazin-1-yl]-N-[3-nitro-4-(2-phenylsulfanylethylamino)phenyl]sulfonylbenzamide] | 7.3 | 2.8
18 | CCOc1cccc(-c2cc(CN3CCN(c4ccc(C(=O)NS(=O)(=O)c5ccc(NCCSc6ccccc6)c([N+](=O)[O-])c5)cc4)CC3)cc(OC(C)C)c2)c1 [B2Q057-01, 4-[4-[[3-(3-Ethoxyphenyl)-5-propan-2-yloxyphenyl]methyl]piperazin-1-yl]-N-[3-nitro-4-(2-phenylsulfanylethylamino)phenyl]sulfonylbenzamide] | 17.5 | 4.4
19 | CCOc1cncc(-c2cc(CN3CCN(c4ccc(C(=O)NS(=O)(=O)c5ccc(NCCSc6ccccc6)c([N+](=O)[O-])c5)cc4)CC3)cc(OC(C)C)c2)c1 [B2Q058-01, 4-[4-[[3-(5-Ethoxypyridin-3-yl)-5-propan-2-yloxyphenyl]methyl]piperazin-1-yl]-N-[3-nitro-4-(2-phenylsulfanylethylamino)phenyl]sulfonylbenzamide] | 3.7 | 3.7
20 | CCOc1cccc(-c2cc(OC)c(CN3CCN(c4ccc(C(=O)NS(=O)(=O)c5ccc(NCCSc6ccccc6)c([N+](=O)[O-])c5)cc4)CC3)c(OC)c2)c1 [B2Q059-01, 4-[4-[[4-(3-Ethoxyphenyl)-2,6-dimethoxyphenyl]methyl]piperazin-1-yl]-N-[3-nitro-4-(2-phenylsulfanylethylamino)phenyl]sulfonylbenzamide] | 9.8 | 7.0
21 | CCOc1cncc(-c2cc(OC)c(CN3CCN(c4ccc(C(=O)NS(=O)(=O)c5ccc(NCCSc6ccccc6)c([N+](=O)[O-])c5)cc4)CC3)c(OC)c2)c1 [B2Q060-01, 4-[4-[[4-(5-Ethoxypyridin-3-yl)-2,6-dimethoxyphenyl]methyl]piperazin-1-yl]-N-[3-nitro-4-(2-phenylsulfanylethylamino)phenyl]sulfonylbenzamide] | 0.0 | 0.0
